Source: patent US3974140A, “Ureidoacetamido-penicillins” (Bayer Aktiengesellschaft, priority 1970, dated 1976)

Legend:
Assay in all cases: MIC, liquid medium test tube series dilution test
[1] = test system: E. coli 14; assay type: cell-based; conditions: E. coli 14, 24 hours, 37°C
Procedure, shortened: (§1)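 Read-out: visual turbidity after 24 h at 37°C. The MIC, in units/ml, corresponds to the non-turbid tube in a liquid-medium test tube dilution series prepared in complete nutrient medium.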

[2] = test system: Klebsiella K 10; assay type: cell-based; conditions: Klebsiella K 10, 24 hours, 37°C
Procedure, shortened: as §1

[3] = test system: E. coli 183/58; assay type: cell-based; conditions: E. coli 183/58, 24 hours, 37°C
Procedure, shortened: as §1

[4] = test system: Klebsiella 63; assay type: cell-based; conditions: Klebsiella 63, 24 hours, 37°C
Procedure, shortened: as §1

[5] = test system: E. coli A 261; assay type: cell-based; conditions: E. coli A 261, 24 hours, 37°C
Procedure, shortened: as §1

[6] = test system: Streptoc. faec. ATCC 9790; assay type: cell-based; conditions: Strep. faec. (Enterococcus) ATCC 9790, 24 hours, 37°C
Procedure, shortened: as §1

[7] = test system: E. coli C 165; assay type: cell-based; conditions: E. coli C 165, 24 hours, 37°C
Procedure, shortened: as §1

[8] = test system: Proteus vulg. 3400; assay type: cell-based, Proteus vulgaris; conditions: Proteus vulg. 3400, 24 hours, 37°C
Procedure, shortened: as §1

[9] = test system: Proteus vulg. 1017; assay type: cell-based, Proteus vulgaris; conditions: Proteus vulg. 1017, 24 hours, 37°C
Procedure, shortened: as §1

[10] = test system: Staph. aureus 133; assay type: cell-based, Staphylococcus aureus; conditions: Staph. aureus 133, 24 hours, 37°C
Procedure, shortened: as §1

[11] = test system: Staph. aureus 1777 E; assay type: cell-based, Staphylococcus aureus; conditions: 24 hours, 37°C
Procedure, shortened: as §1

[12] = test system: Psdm. aerug. Walter; assay type: cell-based, Pseudomonas aerug.; conditions: 24 hours, 37°C
Procedure, shortened: as §1

[13] = test system: Psdm. aerug. Bonn; assay type: cell-based, Pseudomonas aerug.; conditions: 24 hours, 37°C
Procedure, shortened: as §1

Compound | MIC [1] | MIC [2] | MIC [3] | MIC [4] | MIC [5] | MIC [6] | MIC [7] | MIC [8] | MIC [9] | MIC [10] | MIC [11] | MIC [12] | MIC [13] | other results
CC1(C)S[C@@H]2[C@H](NC(=O)[C@H](NC(=O)N3CCNC3=O)c3ccccc3)C(=O)N2[C@H]1C(=O)O [Example 51, Sodium D(-)-α-[(imidazolidin-2-on-1-yl)-carbonylamino]-benzylpenicillin] | 3,12 units/ml | 100 units/ml | 12,5 units/ml | 50 units/ml | 400 units/ml | 25 units/ml | 12,5 units/ml | 25 units/ml | 25 units/ml | < 0,78 units/ml | 400 units/ml | 12,5 units/ml | 12,5 units/ml | 
CC(=O)N(C)C(=O)NC(C(=O)N[C@@H]1C(=O)N2[C@@H]1SC(C)(C)[C@@H]2C(=O)O)c1ccc(C)cc1 (stereo partly drawn) [Example 118, Sodium α-(3-acetyl-3-methyl-ureido)-4-methylbenzylpenicillin] | 12.5 units/ml | 100 units/ml | 200 units/ml | 200 units/ml | > 400 units/ml | 50 units/ml | 50 units/ml | 200 units/ml | 100 units/ml | 1.6 units/ml | 100 units/ml | 200 units/ml | 200 units/ml | 
Cc1ccc(C(NC(=O)N(C)C(=O)N(C)C)C(=O)N[C@@H]2C(=O)N3[C@@H]2SC(C)(C)[C@@H]3C(=O)O)cc1 (stereo partly drawn) [Example 119, Sodium R,S-α-(3-dimethylaminocarbonyl-3-methyl-ureido)-4-methylbenzylpenicillin] | 25 units/ml | 400 units/ml | 400 units/ml | > 400 units/ml | > 400 units/ml | 100 units/ml | 200 units/ml | > 400 units/ml | > 400 units/ml | 1.6 units/ml | 200 units/ml | > 400 units/ml | > 400 units/ml | 
CC1(C)S[C@@H]2[C@H](NC(=O)[C@H](NC(=O)N3CCNC3=O)c3ccccc3)C(=O)N2[C@H]1C(=O)O [Example 53, D(-)-α-[(Imidazolidin-2-on-1-yl)-carbonylamino]-benzylpenicillin] | 3,12 units/ml | 50 units/ml | 12,5 units/ml | 25 units/ml | 400 units/ml | 12,5 units/ml | 6,25 units/ml | 12,5 units/ml | 6,25 units/ml | < 0,78 units/ml | 200 units/ml | 12,5 units/ml | 6,25 units/ml | 
Cc1ccc(C(NC(=O)N2CCNC2=O)C(=O)N[C@@H]2C(=O)N3[C@@H]2SC(C)(C)[C@@H]3C(=O)O)cc1 (stereo partly drawn) [Example 46, Sodium α-[(imidazolidin-2-on-1-yl)-carbonylamino]-p-methylbenzylpenicillin] | 6,25 units/ml | 100 units/ml | 12,5 units/ml | 50 units/ml | > 400 units/ml | 50 units/ml | 50 units/ml | 50 units/ml | 25 units/ml | 1,56 units/ml | 200 units/ml | 25 units/ml | 25 units/ml | 
CSc1ccc(C(NC(=O)N2CCNC2=O)C(=O)N[C@@H]2C(=O)N3[C@@H]2SC(C)(C)[C@@H]3C(=O)O)cc1 (stereo partly drawn) [Example 55, Sodium α-[(imidazolidin-2-on-1-yl)-carbonylamino]-4-methylthiobenzylpenicillin] | 6,25 units/ml | 100 units/ml | 12,5 units/ml | 100 units/ml | > 400 units/ml | 50 units/ml | 25 units/ml | 100 units/ml | 100 units/ml | < 0,78 units/ml | 200 units/ml | 25 units/ml | 12,5 units/ml | 
CSc1ccc(C(NC(=O)N2CCNC2=O)C(=O)N[C@@H]2C(=O)N3[C@@H]2SC(C)(C)[C@@H]3C(=O)O)cc1 (stereo partly drawn) [Example 54, Sodium α-[(imidazolidin-2-on-1-yl)-carbonylamino]-4-methylthiobenzylpenicillin] | 6,25 units/ml | 100 units/ml | 6,25 units/ml | 100 units/ml | > 400 units/ml | 50 units/ml | 25 units/ml | 100 units/ml | 200 units/ml | < 0,78 units/ml | 200 units/ml | 25 units/ml | 12,5 units/ml | 
COC(=O)N(C)C(=O)N[C@@H](C(=O)N[C@@H]1C(=O)N2[C@@H]1SC(C)(C)[C@@H]2C(=O)O)c1c(Cl)cccc1Cl [Example 7, Sodium D(-)-α-(3-methoxycarbonyl-3-methyl-ureido)-2,6-dichlorobenzylpenicillin] | 100-500 units/ml | > 500 units/ml | 100-500 units/ml | > 500 units/ml | > 500 units/ml | 100-500 units/ml | 100-500 units/ml | 100-500 units/ml | ~ 500 units/ml | 0.8-4 units/ml | 100-500 units/ml | > 500 units/ml | 100-500 units/ml | 

Continued, in another order:

MIC [1] | MIC [2] | MIC [3] | MIC [4] | MIC [5] | MIC [6] | MIC [7] | MIC [8] | MIC [9] | MIC [10] | MIC [11] | MIC [12] | MIC [13] | Compound | other results
12.5 units/ml | 50 units/ml | 200 units/ml | 100 units/ml | > 400 units/ml | 100 units/ml | 50 units/ml | 400 units/ml | 100 units/ml | 1.6 units/ml | 400 units/ml | 400 units/ml | 200 units/ml | CC(=O)N(C)C(=O)NC(C(=O)N[C@@H]1C(=O)N2[C@@H]1SC(C)(C)[C@@H]2C(=O)O)c1cccs1 (stereo partly drawn) [Example 122, Sodium D,L-α-(3-acetyl-3-methyl-ureido)-α-thienyl(2)-methylpenicillin] | 
 | 50 units/ml |  |  |  |  |  |  |  |  |  |  |  | CC1(C)S[C@@H]2[C@H](NC(=O)[C@H](NC(=O)N3CCNC3=O)c3ccccc3)C(=O)N2[C@H]1C(=O)O [Example 144 A, D(-)-α-(Imidazolidin-2-on-1-yl-carbonylamino)-benzyl-penicillin] | MIC ([1]; listed as 144): 1.56 units/ml; MIC ([3]; listed as 144): 50 units/ml; MIC ([4]; listed as 144): 50 units/ml; MIC ([5]; listed as 144): 400 units/ml; MIC ([6]; listed as 144): 25 units/ml; MIC ([7]; listed as 144): 6.25 units/ml; MIC ([8]; listed as 144): 25 units/ml; MIC ([9]; listed as 144): 12 units/ml; MIC ([10]; listed as 144): < 0.8 units/ml; MIC ([11]; listed as 144): 200 units/ml; MIC ([12]; listed as 144): 12.5 units/ml; MIC ([13]; listed as 144): 6.25 units/ml
3.12 units/ml | 200 units/ml | 50 units/ml | 100 units/ml | > 400 units/ml | 200 units/ml | 25 units/ml | 100 units/ml | 50 units/ml | 3.12 units/ml | 50 units/ml | 100 units/ml | 50 units/ml | CN(C(=O)N[C@@H](C(=O)N[C@@H]1C(=O)N2[C@@H]1SC(C)(C)[C@@H]2C(=O)O)c1ccccc1)C(=O)N1CCOCC1 [Example 125, Sodium D(-)-α-(3-[4-morpholinyl]-carbonyl-3-methyl-ureido)-benzylpenicillin] | 
6 units/ml | 25 units/ml | 100 units/ml | 100 units/ml | > 400 units/ml | 100 units/ml | 50 units/ml | 200 units/ml | 100 units/ml | < 0.8 units/ml | 100 units/ml | 100 units/ml | 100 units/ml | CC(=O)N(C)C(=O)NC(C(=O)N[C@@H]1C(=O)N2[C@@H]1SC(C)(C)[C@@H]2C(=O)O)c1ccc(Cl)cc1 (stereo partly drawn) [Example 121, Sodium R,S-α-(3-acetyl-3-methyl-ureido)-4-chlorobenzylpenicillin] | 
